Several values for one entry are separate records, joined by “and”; a condition that tells them apart may be missing. Equal values may be shown once. Entries after “also recorded” stand apart in the source; their conditions may differ. Square brackets hold non-standard residues; d marks the D form. Ends that are not written are not given here. βAla = NCCC(=O)O
Assays:
[1] = tested on: focal cerebral ischemia (2 hour MCAO); test: Infarct volume after 2 hour middle cerebral artery occlusion (MCAO) in rats; assay type: in vivo, male Wistar rats; settings: for infarct volume: 3 mg/kg i.v. 4 h, mean±SEM, no unit printed in this block, in %; for Lesion Volume % of Hemisphere (percent hemispheric infarct volume): 3 mg/kg i.v. infusion for 4 h after reperfusion, mean ± SE, n=9, 3 mg/kg
Excerpt: (§1) We developed our peptidomimetic inhibitors of calpain by rational and systematic chemical modifications of the amide bond and/or side chain functionalities of permutations of SEQ ID NO: 2, followed by calpain-inhibitory kinetic measurements of the designed molecules in vitro as well as an assessment of their ability to improve neurological recovery in vivo after focal cerebral ischemic in rats. The structural modifications performed to create the peptidomimetics included, without limitation, amino acid replacements by chemical mutagenesis, amide bond mimics, methylene group insertion between the α-carbon and the carbonyl functionalities of individual amino acids, replacement of natural amino acid side chains with non-natural moieties, and amino acid side chain cyclizations. Calpain-inhibitory activity of the peptidomimetics was measured by steady-state and stopped-flow enzyme inhibition kinetic studies using purified calpain and natural protein or synthetic fluorogenic peptide substrates. The effect of the peptidomimetics on cerebral infarction, cerebral endothelial function and neurological functional recovery after ischemic stroke was assessed using a rat model of 2 hour middle cerebral artery (“MCAO”) ischemia.
(§2) Based on our studies, we selected and further tested SEQ ID NO: 5 for its cerebroprotective capacity after 2 hour middle cerebral artery (“MCAO”) ischemia in the Two hour MCAO by the suture method was induced in 21 male Wistar rats. […] Animals survived 7 days and neurological testing (score 0-3, 3 being the most severe) was performed. After sacrifice the brain samples were formalin fixed and infarct volumes were calculated using standard computerized image analysis. Independent t-test was used for statistical analysis.
(§3) Following an institutionally approved animal care protocol, male Wistar rats (270-290 g) were obtained from Charles River Breeding Co. (Wilmington, Mass., USA). Two-hour middle cerebral artery occlusion (MCAO) by the intravascular suture method, drug infusion, measurement of infarct volume and neurological deficits were performed as detailed previously.
(§4) SEQ ID NO: 5 (50 μM solution, i.v. infusion at 15 μl/min for 4 h; 3 mg/kg), SEQ ID NO: 13 or vehicle (1% DMSO in saline) was administered to rats […] (n=6-9) immediately after reperfusion following 2 h of MCAO. Sham-operated animals had surgery but no MCA occlusion. Animals to be studied for neurological score and infarct volume survived 7 days.
From the H&E sections, the ischemic core area with diffuse pallor of the eosinophilic background and the border area with vacuolation or sponginess and neutrophils can be identified under the microscope. […] The subcortical region in the core slices of C and D is also affected (white arrows). The ischemic damage (i.e. cell death, loss of tissue, or encephalomalacia) is less in the SEQ ID NO: 5-treated animals compared to the vehicle-treated controls. By comparison, the contralateral side appeared undamaged by both gross inspection and in histological sections.

[2] = tested on: focal cerebral ischemia (2 hour MCAO); test: Neurological score after 2 hour MCAO in rats; assay type: in vivo, male Wistar rats; settings: for Neurological Score 0 Day: score 0-3 (3 most severe), day 0; for Neurological Score 1 Day: day 1
Description: as §2, §3, §4
Neurological scores have been previously defined as follows: no observable deficit=0, forelimb flexion=1, decreased resistance to lateral push with forelimb flexion=2, same behavior as 2 plus circling=3. […] However, the difference in performance between the SEQ ID NO: 5-treated animals and the vehicle controls (1.00±0.17 vs. 1.78±0.22, *P<0.05, n=9 per group; independent t-test) and the SEQ ID NO: 13-treated group (1.00±0.17 vs. 1.44±0.18, #P<0.05, n=9 per group; independent t-test) was statistically significant at day 7 post-injury.
We assessed functional outcome as an endpoint of our evaluation by the method of Bederson et al. Treatment with SEQ ID NO: 5 immediately after 2-h MCAO reduced neurological deficits by 24% and 44% on day 4 and day 7, respectively, compared to vehicle-treated stroke controls. Infarct volume was a secondary outcome and was measured at day 7 after stroke. The extent of cerebral infarction was reduced by 35% in the SEQ ID NO: 5-treated animals compared to vehicle-treated animals Due to the predictable location of areas of infarction and consistent production of neurological deficits in the MCAO model used in this study, the effects of SEQ ID NO: 5 on neurological outcome and size of infarction produced by focal cerebral ischemia could be reliably studied. It must be noted, however, that, infarction volumes could correlate poorly with functional outcome because small lesions in cortical locations can produce major functional deficits. Conversely, large lesions in relatively silent areas cause little detectable function loss. Reduction of neurological deficits after stroke has been attributed to synaptic and functional reorganization in the cerebral cortex and in subcortical structures after ischemic injuries.
(§5) Two-hour middle cerebral artery occlusion (MCAO) was used to induce ischemic stroke in Male Wistar rats. SEQ ID NO: 5 was given intravenously to rats immediately after reperfusion following 2 h of MCAO, while control animals had infusion of vehicle solution (n=6-9). Animals to be studied for neurological score and infarct volume survived 7 days, and neurological testing (mNSS and corner turn) were performed at 1, 4, and 7 days after MCAO. In another set of experiments, the animals were sacrificed at 48 h, and histology was performed for BBB integrity (albumin and fibrin leakage from the cerebral microvasculature into brain parenchyma). Phosphorylation of endothelial nitric oxide synthase (eNOS) was analyzed by Western blotting with specific antibodies raised against synthetic phosphorylated peptides representing known eNOS phosphorylation sites.

[3] = tested on: calpain-mediated cleavage of αII-spectrin; test: Western blot of αII-spectrin breakdown products (SBDPs) in rat brain following MCAO; assay type: in vivo, male Wistar rats
Description: Following MCAO and drug infusion, the animals were sacrificed after 24 or 48 h of survival. At that time, the brains were extracted and separated into right and left, cortical and subcortical regions, snap-frozen in liquid nitrogen and stored at −80° C. until used. For Western blot analysis, the brain samples were pulverized to a fine powder with a small mortar and pestle set over dry ice. The pulverized brain tissue powder was homogenized in a solution of 0.25 M sucrose, […] 2-(N-morpholino)-ethanesulfonic acid, 1 mM EDTA, pH 6.5, containing 0.025 mM E-64, 2.0 mM AEBSF, 0.5 mM PMSF, 0.02 mM leupeptin, 0.05 mM pepstatin, and 0.001 mM aprotinin (homogenization buffer) at 4° C. in a Potter-Elvehjem homogenizer. T homogenates were then centrifuged at 4° C. for 20 min at 16,000 g. Aliquots of the supernatant were stored at −80° C. until used for experiments. Protein concentrations were determined using micro BCA Protein Assay kit (Pierce, Rockford, Ill.). SDS-PAGE was carried out according to Laemmli and immunoblots were performed according to the technique of Towbin et al. Mouse monoclonal ant II-spectrin antibody (MAB 1622, 1:1,000) and horse radish peroxidase (HRP)-conjugated goat anti-mouse IgG (AP124P, 1:10,000) were from Chemicon (Temecula, Calif.). Labeled proteins were detected with the enhanced chemiluminescence method according to the manufacturer's instructions (GE Healthcare Biosciences, Piscataway, N.J., USA). Bands were quantified by densitometry using Gel-Doc 2000 (Bio-Rad, Richmond, Va.) and the free open source software ImageJ.
Pathologic activity of calpain and in vivo efficacy of SEQ ID NO: 5 were assessed by Western blot analysis of all-spectrin breakdown products (SBDPs) generated in the rat brain following MCAO. […] (E) Densitometric analysis of SBDP150/SBDP145 levels in ipsilateral cortex and subcortex at 24 and 48 h following MCAO.

BBB integrity = BBB integrity (albumin and fibrin leakage into brain parenchyma) after MCAO; assay type: in vivo, male Wistar rats
Description: as §5, with “sites. […] Shown are representative immunoblots of RSA levels in the ipsilateral cortical (A) and subcortical (B) regions of sham-operated, ischemic vehicle-treated, and ischemic. C, Densitometric analysis of RSA levels in ipsilateral cortex and subcortex (*p<0.05 vs vehicle; n=6) at 24 h following MCAO. […] Representative fluorescent micrographs of fibrin deposition outside the cerebral microvasculature of untreated (MCAO, panel A) and treated (+SEQ ID NO: 5, panel B) rats subjected to 2 hour MCA occlusion with reperfusion and 48 hour survival are shown. A schematic representation of a coronal brain section showing eight fields selected from the ischemic boundary zone (IBZ) for quantitative measurements of immunochemical staining for fibrin in the cortex and striatum is shown (panel C).” for “sites.”

[4] = tested on: endothelial nitric oxide synthase (eNOS); test: eNOS phosphorylation in brain after MCAO (Western blotting); assay type: in vivo, male Wistar rats
Description: as §5
C: Graphical representation of the ratio of upper:lower phospho-eNOS protein band intensities (n=6 rats/experimental group).

purified calpain = test: Calpain-inhibitory activity (steady-state and stopped-flow enzyme inhibition kinetics); assay type: biochemical; settings: in words
Excerpt: as §1, §4

[5] = rat 2-h MCAO, 3 mg/kg i.v. 4 h, mean ± SE, n=9
[6] = rat 2-h MCAO, 3 mg/kg i.v. 4 h, score 0-3, mean ± SE, n=9
[7] = rat 2-h MCAO, 3 mg/kg i.v. 4 h, score 0-3, mean ± SE, n=9, day 4

DPMSSTYIEELGKREVTIPPKYVALLPAVLLALLAP [SEQ ID NO: 5]
ischemic damage (cell death, loss of tissue, encephalomalacia) in H&E sections ([1]; FIG. 3, compared to vehicle-treated controls): less | infarct volume ([1]; rat 2-h MCAO, day 7): 24.9±3.8 | Lesion Volume % of Hemisphere (percent hemispheric infarct volume) ([1]; rat 2-h MCAO, day 7): 24.9±3.8 % of Hemisphere and 24.9 ± 3.8*^,# % of Hemisphere | reduction of infarct volume (extent of cerebral infarction) compared to vehicle-treated animals ([1]; rat 2-h MCAO, day 7): 35% | improving neurological recovery ([2]; 50 micromolar solution via femoral vein for 4 hours after reperfusion, total dose 3 mg/kg): effective | Neurological Score 0 Day [2, 5]: 2.89 ± 0.11 | Neurological Score 1 Day [2, 6]: 2.33 ± 0.24 | Neurological Score 4 Days [2, 7]: 1.44 ± 0.18 | reduction of neurological deficits compared to vehicle-treated stroke controls, day 4 ([2]; rat 2-h MCAO, treatment immediately after MCAO, day 4): 24% | reduction of neurological deficits compared to vehicle-treated stroke controls, day 7 ([2]; rat 2-h MCAO, treatment immediately after MCAO, day 7): 44% | calpain-mediated cleavage of αII-spectrin in rat brain following MCAO ([3]; FIG. 4, 24 h and 48 h): blocks calpain-mediated cleavage of αII-spectrin | SBDP145 levels at 48 h post-injury ([3]; cortical and subcortical regions, 48 h after MCAO, P<0.05 vs. vehicle, n=6): significantly reduced SBDP145 levels | SBDP150 and SBDP145 formation at 24 h post-injury ([3]; ipsilateral cortex and subcortex, 24 h after MCAO): blocked SBDP150 and SBDP145 formation to basal levels; also recorded: completely blocked SBDP145 accumulation | BBB integrity as assessed by albumin and fibrin extravasation (BBB integrity; 48 h, compared to controls): significant improvement | rat serum albumin (RSA) leakage into the ischemic brain parenchyma (BBB integrity; FIG. 5, ipsilateral cortex and subcortex, 24 h following MCAO, p<0.05 vs vehicle, n=6): reduces rat serum albumin (RSA) leakage | fibrin deposition outside the cerebral microvasculature (BBB integrity; FIG. 6, 2 hour MCA occlusion with reperfusion and 48 hour survival): decreases fibrin deposition outside the cerebral microvasculature | eNOS phosphorylation state (eNOS-Ser633, ratio of upper:lower band) ([4]; FIG. 7, n=6 rats/group): modulates eNOS phosphorylation state | eNOS threonine-495 phosphorylation in the brain after stroke ([4]; post-injury treatment, FIG. 8): significantly reduced; also recorded: induces eNOS-Thr495 dephosphorylation | calpain inhibitory activity (purified calpain): potent | specificity for calpain (purified calpain): specific inhibitor of calpain | toxicity to cultured cells (cultured cells): non-toxic to cultured cells

DPMSSTYIEE[βAla]GKREVTIPPKYVALLPAVLLALLAP [SEQ ID NO: 13, reference compound]
infarct volume ([1]; rat 2-h MCAO, day 7): 33.8±4.2 | Lesion Volume % of Hemisphere (percent hemispheric infarct volume) ([1]; rat 2-h MCAO, day 7): 33.8±4.2 % of Hemisphere | Neurological Score 0 Day [2, 5]: 2.89 ± 0.11 | Neurological Score 1 Day [2, 6]: 2.11 ± 0.20 | Neurological Score 4 Days [2, 7]: 1.56 ± 0.18 | Neurological Score 7 Days ([2]; rat 2-h MCAO, 3 mg/kg i.v. 4 h, score 0-3, mean ± SE, n=9, day 7, 3 mg/kg): 1.44±0.18 | calpain inhibitory activity (purified calpain): less active | calpain inhibitory activity (purified calpain; listed as SEQ ID NO: 5-βAla): inactive

Source: patent publication US9074019B2, “Methods, systems, and compositions for calpain inhibition” (HENRY FORD HEALTH SYSTEMS, priority 2008, dated 2015)
